Results: PMC9667936, “Functional mapping of the 14-3-3 hub protein as a guide to design 14-3-3 molecular glues” (Chemical Science, 2022)
Where a SMILES comes first, the peptide text is derived from it. [ ]: non-standard residue; d: D form. The star is where a group is joined. ξ: configuration not given here. FITC = O=C1OC2(c3ccc(O)cc3Oc3cc(O)ccc32)c2ccc(NC(=S)*)cc21; Phe(4-NO2) = N[C@@H](Cc1ccc([N+](=O)[O-])cc1)C(=O)O; ξAla(4-thiazolyl) = NC(Cc1cscn1)C(=O)O; pS = N[C@@H](COP(=O)(O)O)C(=O)O; β3hS = N[C@@H](CO)CC(=O)O; Nva = CCC[C@H](N)C(=O)O; βAla = NCCC(=O)O

Target: T1, 14-3-3γ (Homo sapiens, UniProt P61981)
T1 construct: made in house; host or cells: E. coli NiCo21 (DE3)
T1 sequence (P61981 1-247): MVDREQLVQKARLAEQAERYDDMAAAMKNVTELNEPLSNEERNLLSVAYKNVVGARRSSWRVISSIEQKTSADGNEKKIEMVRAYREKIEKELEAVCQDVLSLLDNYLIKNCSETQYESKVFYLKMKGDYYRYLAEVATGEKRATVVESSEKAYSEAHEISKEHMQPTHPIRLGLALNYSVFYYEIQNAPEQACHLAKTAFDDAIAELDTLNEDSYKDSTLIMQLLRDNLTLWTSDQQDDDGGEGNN
Assay: Fluorescence anisotropy (FA) binary binding study: 14-3-3 titrated to fluorescein-labelled peptide
Conditions: for individual ΔΔG of removed residue: ΔG relative to the previously truncated peptide; for Affinity Kd / Kd: Table S4, point-mutated peptides; for Affinity Kd: 10 nM FITC-labelled peptide; for Kd: 14-3-3 titrated to 10 nM FITC-labelled peptide, HEPES pH 7.4, room temperature, 4PL fit, read-out: Affinity Kd
Method: 14-3-3γ protein expression (FP/ITC experiments)
(§1) A pPROEX HTb expression vector encoding the human 14-3-3 protein gamma (14-3-3γ) with an N-terminal his6-tag was transformed by heat shock into NiCo21 (DE3) competent cells. Single colonies were cultured in 50 mL LB medium (100 µg/mL ampicillin). After overnight incubation at 37 °C, cultures were transferred to 2 L TB media (100 µg/mL ampicillin, 1 mM MgCl2) and incubated at 37 °C until an OD600 nm of 0.8-1.2 was reached. Protein expression was then induced with 0.4 mM isopropyl-β-d-thiogalactoside (IPTG), and cultures were incubated overnight at 18 °C. Cells were harvested by centrifugation (8600 rpm, 20 minutes, 4 °C) and resuspended in lysis buffer (50 mM Hepes, pH 8.0, 300 mM NaCl, 12.5 mM imidazole, 5 mM MgCl2, 2 mM βME) containing cOmplete™ EDTA-free Protease Inhibitor Cocktail tablets (1 tablet/100 ml lysate) and benzonase (1 µl/100 ml). After lysis using a C3 Emulsiflex-C3 homogenizer (Avestin), the cell lysate was cleared by centrifugation (20000 rpm, 30 minutes, 4 °C) and purified using Ni2+-affinity chromatography (Ni-NTA superflow cartridges, Qiagen).
Typically two 5 mL columns (flow 5 mL/min) were used for a 2 L culture in which the lysate was loaded on the column washed with 10 CV wash buffer (50 mM Hepes, pH 8.0, 300 mM NaCl, 25 mM imidazole, 2 mM βME) and eluted in several fractions (2-4 CV) of elution buffer (50 mM Hepes, pH 8.0, 300 mM NaCl, 250 mM imidazole, 2 mM βME). Fractions containing the 14-3-3 protein were combined and dialyzed into 25 mM HEPES pH 8.0, 100 mM NaCl, 10 mM MgCl2, 500 µM TCEP. Finally, the protein was concentrated to ∼60 mg/mL, analyzed Q-Tof LC/MS, and aliquots were flash-frozen for storage at […]
as §1, with “sigma truncated after T231 (14-3-3σΔc) and” for “gamma (14-3-3γ)”, “tablet/ 100” for “tablet/100”, “µl/ 100” for “µl/100”, “ml).” for “ml). After lysis using a C3 Emulsiflex-C3 homogenizer (Avestin), the cell lysate was cleared by centrifugation (20000 rpm, 30 minutes, 4 °C) and purified using Ni2+-affinity chromatography (Ni-NTA superflow cartridges, Qiagen).”
After lysis using a C3 Emulsiflex-C3 homogenizer (Avestin), the cell lysate was cleared by centrifugation (20000 rpm, 30 minutes, 4 °C) and purified using Ni2+-affinity chromatography (Ni-NTA superflow cartridges, Qiagen). Typically two 5 mL columns were used for a 2 L culture in which the lysate was loaded on the column washed with 10 CV wash buffer (50 mM Hepes, pH 8.0, 300 mM NaCl, 25 mM imidazole, 2 mM βME) and eluted with several fractions (2-4 CV) of elution buffer (50 mM Hepes, pH 8.0, 300 mM NaCl, 250 mM imidazole, 2 mM βME). Fractions containing the 14-3-3 protein were combined and dialyzed into 25 mM HEPES pH 8.0, 200 mM NaCl, 10 mM MgCl2, 2 mM βME. In addition, 1 mg TEV was added for each 100 mg purified protein to remove the purification tag. The cleaved sample was then again loaded on a 10 mL Ni-NTA column to separate the cleaved product from the expression tag and residual uncleaved protein. The flowthrough was loaded on a Superdex 75 pg 16/60 size exclusion column (GE Life Sciences) using 25 mM HEPES, 100 mM NaCl, 10 mM MgCl2, 500 μM TCEP (adjusted to pH=8.0) as running buffer. Fractions containing the 14-3-3 protein were pooled and concentrated to ∼60 mg/mL, analyzed Q-Tof LC/MS, and aliquots were flash-frozen for storage at −80 […]
The peptides 1 and 2a-d were synthesized on 50 µmol scale on a Rink amide MBHA resin […]

[1] = Table S2, FA KD of peptide divided by KD of previous (one amino acid longer) peptide, mean of n = 3
[2] = Table S2, KD / KD of previous (one amino acid longer) peptide, replicate 1
[3] = Table S2, KD / KD of previous (one amino acid longer) peptide, replicate 2
[4] = Table S2, KD / KD of previous (one amino acid longer) peptide, replicate 3
[5] = Table S2, calculated from FA KD, mean of n = 3
[6] = Table S2, from FA KD, replicate 1
[7] = Table S2, from FA KD, replicate 2
[8] = Table S2, from FA KD, replicate 3
[9] = Table S2, ΔG minus ΔG of previous peptide, FA, replicate 1
[10] = Table S2, ΔG minus ΔG of previous peptide, FA, replicate 2
[11] = Table S2, ΔG minus ΔG of previous peptide, FA, replicate 3
[12] = Table S2, ΔG of peptide minus ΔG of previous (one amino acid longer) peptide, FA, mean of n = 3
[13] = Table S4, FA Kd / Kd of 1, replicate 1
[14] = Table S4, FA Kd / Kd of 1, replicate 2
[15] = Table S4, FA Kd / Kd of 1, replicate 3
[16] = Table S4, FA Kd of peptide divided by Kd of 1, mean of n = 3
[17] = Table S4, calculated from FA Kd, mean of n = 3
[18] = Table S4, from FA Kd, replicate 1
[19] = Table S4, from FA Kd, replicate 2
[20] = Table S4, from FA Kd, replicate 3
[21] = Table S4, ΔG minus ΔG of 1, FA, replicate 1
[22] = Table S4, ΔG minus ΔG of 1, FA, replicate 2
[23] = Table S4, ΔG minus ΔG of 1, FA, replicate 3
[24] = Table S4, ΔG of peptide minus ΔG of 1, FA, mean of n = 3

Row | Structure (SMILES) | individual ΔΔG of removed residue (FA) | Fold change to previous [1] | Fold change to previous [2] | Fold change to previous [3] | Fold change to previous [4] | ΔG [5] | ΔG [6] | ΔG [7] | ΔG [8] | ΔΔG (to previous) [9] | ΔΔG (to previous) [10] | ΔΔG (to previous) [11] | ΔΔG (to previous) [12] | Affinity Kd (FA, replicate 1) [nM] | Affinity Kd (FA, replicate 2) [nM] | Affinity Kd (FA, replicate 3) [nM] | Kd (FA, mean of n = 3) [nM] | Fold change to 1 [13] | Fold change to 1 [14] | Fold change to 1 [15] | also measured
1 | C[C@H](NC(=O)[C@H](CCCCN)NC(=O)[C@H](Cc1ccc([N+](=O)[O-])cc1)NC(=O)CCNC(=O)C[C@H](CO)NC(=O)[C@H](Cc1ccc([N+](=O)[O-])cc1)NC(=O)[C@H](COP(=O)(O)O)NC(=O)C(N)Cc1cscn1)C(=O)N[C@@H](CCCCNC(=S)Nc1ccc2c(c1)C(=O)OC21c2ccc(O)cc2Oc2cc(O)ccc21)C(N)=O (stereo partly drawn) [2c] (H-[ξAla(4-thiazolyl)][pS][Phe(4-NO2)][β3hS][βAla][Phe(4-NO2)]KAK(FITC)-NH2) | only minor energy contributions | 0,53 | 0,51 | 0,53 | 0,56 | -9,90 kcal/mol | -9,93 kcal/mol | -9,88 kcal/mol | -9,88 kcal/mol | -0,40 kcal/mol | -0,38 kcal/mol | -0,34 kcal/mol | -0,37 kcal/mol | – | – | – | – | – | – | – | –
2 | C[C@H](NC(=O)[C@H](CCCCN)NC(=O)[C@H](Cc1ccc([N+](=O)[O-])cc1)NC(=O)CCNC(=O)C[C@H](CO)NC(=O)[C@H](Cc1ccc([N+](=O)[O-])cc1)NC(=O)[C@@H](N)COP(=O)(O)O)C(=O)N[C@@H](CCCCNC(=S)Nc1ccc2c(c1)C(=O)OC21c2ccc(O)cc2Oc2cc(O)ccc21)C(N)=O [2d] (H-[pS][Phe(4-NO2)][β3hS][βAla][Phe(4-NO2)]KAK(FITC)-NH2) | 2.2 kcal/mol | 43,23 | 40,69 | 45,81 | 43,18 | -7,67 kcal/mol | -7,74 kcal/mol | -7,61 kcal/mol | -7,65 kcal/mol | 2,19 kcal/mol | 2,26 kcal/mol | 2,23 kcal/mol | 2,23 kcal/mol | – | – | – | – | – | – | – | fold change in binding affinity on truncation (FA KD relative to the previous (one amino acid longer) peptide): 43 fold; cumulative ΔΔG of truncating the entire N- or C-terminus (FA, relative to peptide 1 (2d: entire N-terminus; 2i: entire C-terminus)): 2.9 kcal/mol; ΔΔG N-term (cumulative, whole N-terminus removed) (Table S2, N-term = 2d relative to 1, FA, mean of n = 3): 2,86 kcal/mol; ΔΔG N-term (cumulative) (Table S2, N-term = 2d relative to 1, FA, replicate 1): 2,88 kcal/mol; ΔΔG N-term (cumulative) (Table S2, N-term = 2d relative to 1, FA, replicate 2): 2,94 kcal/mol; ΔΔG N-term (cumulative) (Table S2, N-term = 2d relative to 1, FA, replicate 3): 2,75 kcal/mol
3 | CCC[C@H](NC(=O)[C@H](N)CCCCN)C(=O)N[C@@H](Cc1ccc([N+](=O)[O-])cc1)C(=O)N[C@@H](C)C(=O)N[C@@H](COP(=O)(O)O)C(=O)N[C@@H](Cc1ccc([N+](=O)[O-])cc1)C(=O)N[C@@H](CO)CC(=O)NCCC(=O)N[C@@H](Cc1ccc([N+](=O)[O-])cc1)C(=O)N[C@@H](CCCCN)C(N)=O [3a] (H-[dK][Nva][Phe(4-NO2)]A[pS][Phe(4-NO2)][β3hS][βAla][Phe(4-NO2)]K-NH2; N-terminus and C-terminus assumed) | – | – | – | – | – | – | – | – | – | – | – | – | – | 100 | 42 | 72 | 71 | 1.9 | 0.6 | 1.0 | ΔΔG of point mutation (FA) (FA, relative to 1, mean ± SD, SD): 0.0 ± 0.4 kcal/mol; Fold change to 1 [16]: 1.2; ΔG [17]: -9.8 kcal/mol; ΔG [18]: -9.5 kcal/mol; ΔG [19]: -10.1 kcal/mol; ΔG [20]: -9.7 kcal/mol; ΔΔG to 1 [21]: 0.4 kcal/mol; ΔΔG to 1 [22]: -0.3 kcal/mol; ΔΔG to 1 [23]: 0.0 kcal/mol; ΔΔG to 1 [24]: 0.0 kcal/mol
4 | CCC[C@H](NC(=O)[C@H](N)CCCCN)C(=O)N[C@@H](Cc1ccc([N+](=O)[O-])cc1)C(=O)NC(Cc1cscn1)C(=O)N[C@@H](COP(=O)(O)O)C(=O)N[C@@H](Cc1ccc(O)cc1)C(=O)N[C@@H](CO)CC(=O)NCCC(=O)N[C@@H](Cc1ccc([N+](=O)[O-])cc1)C(=O)N[C@@H](CCCCN)C(N)=O (stereo partly drawn) [4a] (H-[dK][Nva][Phe(4-NO2)][ξAla(4-thiazolyl)][pS]Y[β3hS][βAla][Phe(4-NO2)]K-NH2; N-terminus and C-terminus assumed) | – | – | – | – | – | – | – | – | – | – | – | – | – | 47 | 41 | 63 | 50 | 0.9 | 0.6 | 0.9 | Fold change to 1 [16]: 0.8; ΔG [17]: -10.0 kcal/mol; ΔG [18]: -10.0 kcal/mol; ΔG [19]: -10.1 kcal/mol; ΔG [20]: -9.8 kcal/mol; ΔΔG to 1 [21]: -0.1 kcal/mol; ΔΔG to 1 [22]: -0.3 kcal/mol; ΔΔG to 1 [23]: -0.1 kcal/mol; ΔΔG to 1 [24]: -0.2 kcal/mol
